For this assay, the target named is T1, SlitOR5/SlitOrco (Spodoptera littoralis, UniProt A0A5J6NJF6).
T1 construct: full-length open reading frames (SlitOr5 1191 bp) in pCS2+, cRNAs co-injected in Xenopus oocytes; heteromer with co-receptor Orco; with Odorant receptor coreceptor
T1 sequence (A0A5J6NJF6 1-397): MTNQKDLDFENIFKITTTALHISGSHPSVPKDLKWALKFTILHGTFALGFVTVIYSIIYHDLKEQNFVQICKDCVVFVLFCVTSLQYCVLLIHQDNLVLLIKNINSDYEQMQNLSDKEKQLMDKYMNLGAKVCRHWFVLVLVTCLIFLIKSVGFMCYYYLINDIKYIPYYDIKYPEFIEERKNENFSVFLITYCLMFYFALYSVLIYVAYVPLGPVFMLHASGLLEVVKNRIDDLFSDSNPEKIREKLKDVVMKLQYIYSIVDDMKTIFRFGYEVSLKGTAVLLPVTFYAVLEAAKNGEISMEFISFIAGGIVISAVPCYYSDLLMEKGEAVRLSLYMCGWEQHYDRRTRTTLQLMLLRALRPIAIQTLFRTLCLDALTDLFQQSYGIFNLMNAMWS
T1 sequence (B6C755 1-473 partner): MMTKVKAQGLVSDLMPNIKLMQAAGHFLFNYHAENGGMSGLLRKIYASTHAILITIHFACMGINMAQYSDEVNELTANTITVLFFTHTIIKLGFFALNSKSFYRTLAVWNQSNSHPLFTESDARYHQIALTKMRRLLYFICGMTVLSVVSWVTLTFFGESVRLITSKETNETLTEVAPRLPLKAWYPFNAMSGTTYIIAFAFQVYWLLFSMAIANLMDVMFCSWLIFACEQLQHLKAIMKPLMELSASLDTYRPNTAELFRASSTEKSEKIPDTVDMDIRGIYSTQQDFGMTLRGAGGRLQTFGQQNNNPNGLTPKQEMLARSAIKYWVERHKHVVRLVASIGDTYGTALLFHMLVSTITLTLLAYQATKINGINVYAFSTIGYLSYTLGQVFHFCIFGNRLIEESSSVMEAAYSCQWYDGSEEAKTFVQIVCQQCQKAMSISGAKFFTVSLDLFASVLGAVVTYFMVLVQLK
The assay can be described thus: two-electrode voltage clamp, inward current in Xenopus oocytes. Format: cell-based.

The structures appear in SMILES notation.

For the compound `CC/C=C/C=C\CCCCCCCCOC(C)=O` [(Z,E)-9,11-14:OAc, (Z,E)-9,11-tetradecadienyl acetate], a half-maximal effect (EC50) was put at 0.171 µM. This lies in the sub-micromolar range.

Broadly, the EC50 is the midpoint of the concentration-response curve.

(Values after paper PMC6904214, “A novel lineage of candidate pheromone receptors for sex communication in moths” (eLife, 2019).)
